Source: US10434199B2, “Picolinate cross-bridged cyclams, chelates with metallic cations and use thereof” (UNIVERSITÉ DE BRETAGNE OCCIDENTALE, priority 2013, dated 2019)

What was measured:
Assay type in all cases: physicochemical
[1] = Potentiometric titrations: stability constants and pM of Zn^2+ complexes
Experimental: Equipment and work conditions. The potentiometric setup has been described in Roger, M. et al. Inorg. Chem. 2013, 52, 5246-5259. The titrant was a KOH solution prepared at ca. 0.1 M from a commercial ampoule of analytical grade, and its accurate concentration was obtained by application of the Gran's method upon titration of a standard HNO3 solution (Rossotti, F. J. and Rossotti, H. J. J. Chem. Educ. 1965, 42, 375-378). Ligand solutions were prepared at about 2.0×10^−3 M, and the Cu^2+ and Zn^2+ solutions at ca. 0.05 M from analytical grade nitrate salts and standardized by complexometric titrations with H4edta (ethylenediaminetetraacetic acid). Sample solutions for titration contained approximately 0.04 mmol of ligand in a volume of 30 mL where the ionic strength was kept at 0.10 M using KNO3 as background electrolyte. Metal cations were added at 0.9 equiv. of the ligand amount in complexation titrations. Batch titrations were prepared in a similar way but with each titration point corresponding to 1/10 of the amount of a conventional titration sample. Batch titration points were incubated in tightly closed vials at 25° C. until potential measurements attained complete stability, which happened within a week.
Measurements. All measurements were carried out at 25.0±0.1° C. under inert atmosphere. The electromotive force of the sample solutions was measured after calibration of the electrodes by titration of a standard HNO3 solution at 2.0×10^−3 M in the work conditions. The [H^+] of the solutions was determined by measurement of the electromotive force of the cell, E=E^o′+Q log [H^+]+Ej. The term pH is defined as −log [H^+]. E^o′ and Q were determined from the acid region of the calibration curves. Deviations from the Nernst law at very low pH (pH<2.5) were corrected with the VLpH software (Calibration software from the maker of Hyperquad available for free at http://www.hyperquad.co.uk/), which performs a [H^+] correction based on a very low pH calibration procedure. The liquid-junction potential, Ej, was otherwise found to be negligible for pH >2.5 under the experimental conditions used. […] Each titration consisted of 80-100 equilibrium points in the range of pH 2.5-11.5 (or 1.5-11.5 for Cu^2+ complexations), and at least two replicate titrations were performed for each particular system.
Calculations. The potentiometric data were refined with the Hyperquad software, and speciation diagrams were plotted using the HySS software. The overall equilibrium constants βi^H and βMmHhL1 are defined by βMmHhL1=[MmHhLl]/[M]^m[H]^h[L]^l (βi^H=[HhLl]/[H]^h[L]^l and βML-1L=βML(OH)×Kw). Differences in log units between the values of protonated (or hydrolysed) and non-protonated constants provide the stepwise (log K) reaction constants (being KMmHhL1=[MmHhLl]/[MmHh-1Ll][H]). The errors quoted are the standard deviations calculated by the fitting program from all the experimental data for each system.
The stability constants of the complexes formed by Hcb-te1pa with Cu^2+ and Zn^2+ were determined by potentiometric titrations in aqueous solution at 25.0° C. in 0.10 M KNO3 ionic strength (Table 2).
The equilibrium of formation of the copper(II) and especially the zinc(II) complexes is slow in the acidic pH range. In the case of Cu^2+, the complexation is almost complete from low pH but relatively slow up to pH=4. To overcome this double problem, conventional titrations were performed at pH values below 2 in order to observe a significant percentage of free metal ion (at least 18%) and thus allow for determination of the corresponding stability constant, while giving the solution enough time to reach equilibrium prior to the start of the titration. During titrations, each experimental point included a supplementary equilibration time in order to yield fully stabilized measurements. […]

[2] = Cyclic voltammetry of the copper(II) complexes; details: overview table
Experimental: Cyclic voltammograms were measured using Autolab equipment at room temperature. All measurements were made using a three-electrode system: a glassy-carbon electrode as a working electrode, a platinum wire as a counter-electrode, and a saturated calomel reference electrode. All electrochemical experiments were performed in ca. 1 mM aqueous solutions of preformed complex under a N2 atmosphere containing 0.1 M NaClO4 as the supporting electrolyte. From the initial potential of the analysis (0 V), the voltage was ramped to −1.3 V, then to 0.2 V, and back to 0 V at a scan rate of 100 mV/s. All potentials are expressed relative to the saturated calomel electrode (SCE) except otherwise noted.
One of the explanations for the dissociation of copper(II) complexes of macrocyclic ligands in biological media is the metal reduction to copper(I) followed by the demetallation of the complex. It is thus important to ensure the electrochemical inertness as well as the reversibility of the redox system. To determine the redox behavior of the copper complex of Hcb-te1pa, cyclic voltammetry experiments were performed in aqueous solution at pH values of 2.3 and 6.8. The experiments were carried out with a glassy-carbon working electrode in solutions containing 0.1 M NaClO4 as supporting electrolyte.

[3] = Copper(II) complex formation kinetics (UV-vis, buffered aqueous solutions); details: for time to completion (>99%) of copper(II) complex formation: 25° C.
Experimental: Complex Formation. The formation of the copper(II) complex of Hcb-te1pa was studied in buffered aqueous solutions at 25° C. The increasing intensity of the complex d-d transition band in the visible range (600 nm) was followed at pH=5.0 (0.2 M potassium acetate buffer) and pH=7.4 (0.2 M HEPES buffer), with [Cu^2+]=[Hcb-te1pa]=0.8 mM. Additionally, complex formation was also studied at pH=3.0 (0.2 M (K,H)Cl) under pseudo-first order conditions, by following the increasing charge transfer band in the UV range (at 310 nm) at [Cu^2+]=10×[Hcb-te1pa]=2 mM.
The copper(II) complex formation with Hcb-te1pa was spectroscopically monitored in different buffered solutions from acidic to neutral pH. […] The reaction becomes progressively slower because of the increase of the acidity of the reaction media, enabling a kinetic study under pseudo-first order conditions using conventional UV-vis spectroscopic methods. In this work such kinetic study was performed at pH=3, which is at the lower limit of the pH range in which the copper(II) complexation is approximately complete under equilibrium in equimolar metal-to-ligand conditions.

log KMLHh, ZnLOH + H^+ ⇌ ZnL ([1]; 25.0° C., I = 0.10M KNO3): 11.33 log units
log KMLHh, Zn^2+ + L ⇌ ZnL ([1]; 25.0° C., I = 0.10M KNO3): 18.83 log units
log βMLHh, Zn^2+ + L ⇌ ZnL ([1]; 25.0° C., I = 0.10M KNO3): 18.83(6) log units
log βMLHh, Zn^2+ + L ⇌ ZnLOH + H^+ ([1]; 25.0° C., I = 0.10M KNO3): 7.50(7) log units
c) inertness vs Zn: log K[ZnL] ([1]; overview table): 18.83
c) inertness vs Zn: pZn ([1]; overview table, calculated pM): 8.50
Calculated pM, Zn^2+ ([1]; pH = 7.4, 100% excess of ligand, [M^2+]tot = 1 × 10^−5 M): 8.50
e) stability upon reduction, Cu(II) -> Cu (I): reduction potential [2]: −0.696 V
e) stability upon reduction, Cu(II) -> Cu (I): reversibility [2]: reversible
SMILES: O=C(O)c1cccc(CN2CCCN3CCNCCCN(CC3)CC2)n1 [Hcb-te1pa, 6-(1,4,8,11-tetraazabicyclo[6.6.2]hexadecan-4-ylmethyl)picolinic acid]
a) metallation kinetics: time required for complete (>99%) Cu complexation ([3]; overview table): 3 min
time to quantitative (>99%) formation of copper(II) complex ([3]; pH=3, pseudo-first order, excess of 10 equivalents of metal cation): ≤ 10 min
time to completion (>99%) of copper(II) complex formation ([3]; pH=5, equimolar metal-to-ligand ratio): ≤ 3 min
time to completion (>99%) of copper(II) complex formation ([3]; physiological pH (7.4), equimolar metal-to-ligand ratio): within a few seconds
copper chelated immediately ([3]; remaining copper chelated within a few seconds): more than 90%
